The text below walks through data of ChEMBL document CHEMBL1153295, “Stereoselective synthesis of 15- and 16-substituted isosteviol derivatives and their cytotoxic activities” (Bioorg Med Chem Lett, 2009).

The source made the active and inactive calls. The rule behind the calls is not given here.

The subject of the first test is B16-F10. The test is described as follows: Cytotoxicity against mouse B16F10 cells after 48 hrs by MTT assay. As to conditions: B16-F10, 48 h. Type of test: functional, cell-based.
On to `CCOC(=O)[C@]1(C)CCC[C@@]2(C)[C@@H]3CC[C@@]4(C)C[C@]3(CC[C@@H]21)C[C@H]4O`, for which half-maximal inhibition (IC50) was put at 58 µM.
Regarding `C=C[C@]12CC[C@H]3[C@@](C)(CCC[C@@]3(C)C(=O)OCC)[C@@H]1CC[C@](C)(C=N)C2`, half-maximal inhibition (IC50) required 27.5 µM.
Consider `CCOC(=O)[C@]1(C)CCC[C@@]2(C)[C@@H]3CC[C@@]4(C)C[C@]3(CC[C@@H]21)c1cn(-c2ccccc2)nc14`, for which the IC50 – broadly, the concentration that gives 50% inhibition – was found to be 19 µM.
Take `CCOC(=O)[C@]1(C)CCC[C@@]2(C)[C@@H]3CC[C@@]4(C)C[C@]3(CC[C@@H]21)[C@@H]1CON[C@@H]14`: the IC50 was determined as 15 µM.
`C=C[C@]12CC[C@H]3[C@@](C)(CCC[C@@]3(C)C(=O)OCC)[C@@H]1CC[C@](C)(CO)C2`: the IC50 worked out at 24 µM.
On to `C=C[C@]12CC[C@H]3[C@@](C)(CCC[C@@]3(C)C(=O)OCC)[C@@H]1CC[C@](C)(O)C2`, for which inhibition was half-maximal at 26 µM (IC50).
The same measure, in the same setting: the value for `CCOC(=O)[C@]1(C)CCC[C@@]2(C)[C@@H]3CC[C@@]4(C)C[C@]3(CC[C@@H]21)[C@H](CO)[C@H]4O` was 68 µM.
Still for that read-out and setting: next, `CCOC(=O)[C@]1(C)CCC[C@@]2(C)[C@@H]3CC[C@@]4(C)C[C@]3(CC[C@@H]21)[C@@H]1CN(c2ccc([N+](=O)[O-])cc2)N=C14`: 21 µM.
Molecule `CCOC(=O)[C@]1(C)CCC[C@@]2(C)[C@@H]3CC[C@@]4(C)C[C@]3(CC[C@@H]21)[C@H](COC(=O)c1cccnc1)[C@H]4OC(=O)c1cccnc1` displayed an IC50 of 22 µM.
Still for that read-out and setting: next, `CCOC(=O)[C@]1(C)CCC[C@@]2(C)[C@@H]3CC[C@@]4(C)C[C@]3(CC[C@@H]21)[C@H](COC(=O)c1cccnc1)[C@H]4O`: 25 µM.

A further test deals with B16-F10. The test is described as follows: Cytotoxicity against mouse B16F10 cells at 100 uM after 48 hrs by MTT assay. Type of test: functional.
Settings: not given
As for `CCOC(=O)[C@]1(C)CCC[C@@]2(C)[C@@H]3CC[C@@]4(C)C[C@]3(CC[C@@H]21)[C@@H]1CO[C@H]4O1`, the inhibition (in general, the drop in the measured response relative to a control, in per cent) was “inactive”.
Same read-out and setting: next, `C[C@]12CC[C@H]3[C@]4(C)CCC[C@@](C)(C(=O)O)[C@H]4CC[C@@]3(C1)[C@H](CO)[C@H]2O`: “inactive”; `CCOC(=O)[C@]1(C)CCC[C@@]2(C)[C@@H]3CC[C@@]4(C)C[C@]3(CC[C@@H]21)[C@@H]1CON(C)[C@@H]14`: “inactive”.
As to `C=C[C@]12CC[C@H]3[C@@](C)(CCC[C@@]3(C)C(=O)OCC)[C@@H]1CC[C@](C)(C=O)C2`, the inhibition entry is “inactive”.
On to `C=C[C@]12CC[C@H]3[C@@](C)(CCC[C@@]3(C)C(=O)OCC)[C@@H]1CC[C@](C)(C(=O)O)C2`, for which the inhibition result was “inactive”.
Take `C=CC(=O)O[C@@H]1C[C@]23CC[C@H]4[C@@](C)(CCC[C@@]4(C)C(=O)OCC)[C@@H]2CC[C@@]1(C)C3`: the inhibition entry is “inactive”.
As for `CCOC(=O)[C@]1(C)CCC[C@@]2(C)[C@@H]3CC[C@@]4(C)C[C@]3(CC[C@@H]21)CC4=O`, the inhibition result was “inactive”.
Regarding `C[C@@]12CC[C@@H]3[C@@](CC[C@H]4[C@@]3(C)CCC[C@@]4(C)C(=O)O)(CC1=O)C2`, the inhibition entry is “inactive”.
Same read-out and setting: next, `C[C@@]12CC[C@@H]3[C@@](CC[C@H]4[C@@]3(C)CCC[C@@]4(C)C(=O)O)(C[C@H]1O)C2`: “inactive”.
On the same count and under the same terms, next, `CCOC(=O)[C@]1(C)CCC[C@@]2(C)[C@@H]3CC[C@@]4(C)C[C@]3(CC[C@@H]21)[C@H](CO[N+](=O)[O-])[C@H]4O[N+](=O)[O-]`: “inactive”.

Still in this test, the particulars now being: B16-F10, 48 h.
Regarding `C=C[C@]12CC[C@H]3[C@@](C)(CCC[C@@]3(C)C(=O)OCC)[C@@H]1CC[C@](C)(CN)C2`, testing at 100 µM gave an inhibition of 34.3%.
